In US20050124637A1, “Compounds and compositions as inhibitors of receptor tyrosine kinase activity” (IRM LLC, priority 2003, published 2005):

Assays:
TrkB = molecular target: T1, TrkB (Homo sapiens, UniProt Q16620); test: Upstate KinaseProfiler radio-enzymatic filter binding assay, TrkB; type: biochemical; conditions: 10 μM compound; read-out: percentage inhibition, TrkB
T1 construct: purchased Upstate
Description: (§1) Compounds of the invention are assessed for their ability to inhibit individual members of a panel of kinases (a partial, non-limiting list of kinases includes: cSRC, Lck, FGFR3, Flt3, TrkB and PFGFRα). The compounds are tested in duplicates at a final concentration of 10 μM following this generic protocol. Note that the kinase buffer composition and the substrates vary for the different kinases included in the “Upstate KinaseProfiler™” panel. Kinase buffer (2.5 μL, 10×-containing MnCl2 when required), active kinase (0.001-0.01 Units; 2.51 μL), specific or Poly(Glu4-Tyr) peptide (5-500 μM or 0.01 mg/ml) in kinase buffer and kinase buffer (50 μM; 5 μL) are mixed in an eppendorf on ice. A Mg/ATP mix (10 μL; 67.5 (or 33.75) mM MgCl2, 450 (or 225) μM ATP and 1 μCi/μl [γ-^32P]-ATP (3000 Ci/mmol)) is added and the reaction is incubated at about 30° C. for about 10 minutes. The reaction mixture is spotted (20 μL) onto a 2 cm×2 cm P81 (phosphocellulose, for positively charged peptide substrates) or Whatman No. 1 (for Poly (Glu4-Tyr) peptide substrate) paper square. The assay squares are washed 4 times, for 5 minutes each, with 0.75% phosphoric acid and washed once with acetone for 5 minutes. The assay squares are transferred to a scintillation vial, 5 ml scintillation cocktail are added and ^32P incorporation (cpm) to the peptide substrate is quantified with a Beckman scintillation counter. Percentage inhibition is calculated for each reaction.

Bmx = molecular target: T2, Bmx (Homo sapiens, UniProt P51813); test: Upstate KinaseProfiler radio-enzymatic filter binding assay, Bmx; type: biochemical; conditions: 10 μM compound; read-out: percentage inhibition, Bmx
T2 construct: purchased Upstate
T2 sequence (P51813 1-675): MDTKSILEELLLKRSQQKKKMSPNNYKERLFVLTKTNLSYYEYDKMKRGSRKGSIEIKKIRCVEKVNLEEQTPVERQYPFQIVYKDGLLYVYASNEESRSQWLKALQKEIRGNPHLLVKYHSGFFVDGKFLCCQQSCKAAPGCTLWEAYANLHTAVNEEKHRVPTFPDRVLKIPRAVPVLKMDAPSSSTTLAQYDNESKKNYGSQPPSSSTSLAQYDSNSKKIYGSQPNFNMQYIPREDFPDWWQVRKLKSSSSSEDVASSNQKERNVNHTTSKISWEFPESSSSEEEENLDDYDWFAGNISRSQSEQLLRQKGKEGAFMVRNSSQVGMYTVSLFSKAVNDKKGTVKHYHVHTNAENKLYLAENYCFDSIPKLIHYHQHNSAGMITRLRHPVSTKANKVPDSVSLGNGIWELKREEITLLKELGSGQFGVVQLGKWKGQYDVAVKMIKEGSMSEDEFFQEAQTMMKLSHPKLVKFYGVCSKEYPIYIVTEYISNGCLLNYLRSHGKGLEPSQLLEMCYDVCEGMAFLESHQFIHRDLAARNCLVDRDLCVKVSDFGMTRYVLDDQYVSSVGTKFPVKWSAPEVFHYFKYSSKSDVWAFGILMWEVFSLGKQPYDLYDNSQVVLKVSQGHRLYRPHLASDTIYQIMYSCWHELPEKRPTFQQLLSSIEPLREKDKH
Description: as §1

c-Src = molecular target: T3, c-Src (Homo sapiens, UniProt P12931); test: Upstate KinaseProfiler radio-enzymatic filter binding assay, c-Src; type: biochemical; conditions: 10 μM compound; read-out: percentage inhibition, c-Src
T3 construct: purchased Upstate
T3 sequence (P12931 whole entry): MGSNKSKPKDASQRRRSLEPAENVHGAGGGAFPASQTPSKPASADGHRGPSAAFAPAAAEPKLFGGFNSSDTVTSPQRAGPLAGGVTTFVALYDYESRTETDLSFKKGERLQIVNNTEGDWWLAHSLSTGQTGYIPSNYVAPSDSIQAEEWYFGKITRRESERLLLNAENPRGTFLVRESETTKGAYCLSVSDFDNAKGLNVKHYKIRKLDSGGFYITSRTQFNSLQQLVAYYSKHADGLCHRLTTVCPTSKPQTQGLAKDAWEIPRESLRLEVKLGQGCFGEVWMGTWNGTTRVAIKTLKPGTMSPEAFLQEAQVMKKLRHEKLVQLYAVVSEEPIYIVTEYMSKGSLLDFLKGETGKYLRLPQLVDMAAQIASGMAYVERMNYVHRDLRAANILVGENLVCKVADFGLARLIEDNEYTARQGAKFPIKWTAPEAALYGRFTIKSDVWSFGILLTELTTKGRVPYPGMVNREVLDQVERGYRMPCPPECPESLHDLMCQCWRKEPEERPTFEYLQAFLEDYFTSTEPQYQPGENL
Description: as §1

Flt3 = molecular target: T4, Flt3 (Homo sapiens, UniProt P36888); test: Upstate KinaseProfiler radio-enzymatic filter binding assay, Flt3; type: biochemical; conditions: 10 μM compound; read-out: percentage inhibition, Flt3
T4 construct: purchased Upstate
T4 sequence (P36888 27-993): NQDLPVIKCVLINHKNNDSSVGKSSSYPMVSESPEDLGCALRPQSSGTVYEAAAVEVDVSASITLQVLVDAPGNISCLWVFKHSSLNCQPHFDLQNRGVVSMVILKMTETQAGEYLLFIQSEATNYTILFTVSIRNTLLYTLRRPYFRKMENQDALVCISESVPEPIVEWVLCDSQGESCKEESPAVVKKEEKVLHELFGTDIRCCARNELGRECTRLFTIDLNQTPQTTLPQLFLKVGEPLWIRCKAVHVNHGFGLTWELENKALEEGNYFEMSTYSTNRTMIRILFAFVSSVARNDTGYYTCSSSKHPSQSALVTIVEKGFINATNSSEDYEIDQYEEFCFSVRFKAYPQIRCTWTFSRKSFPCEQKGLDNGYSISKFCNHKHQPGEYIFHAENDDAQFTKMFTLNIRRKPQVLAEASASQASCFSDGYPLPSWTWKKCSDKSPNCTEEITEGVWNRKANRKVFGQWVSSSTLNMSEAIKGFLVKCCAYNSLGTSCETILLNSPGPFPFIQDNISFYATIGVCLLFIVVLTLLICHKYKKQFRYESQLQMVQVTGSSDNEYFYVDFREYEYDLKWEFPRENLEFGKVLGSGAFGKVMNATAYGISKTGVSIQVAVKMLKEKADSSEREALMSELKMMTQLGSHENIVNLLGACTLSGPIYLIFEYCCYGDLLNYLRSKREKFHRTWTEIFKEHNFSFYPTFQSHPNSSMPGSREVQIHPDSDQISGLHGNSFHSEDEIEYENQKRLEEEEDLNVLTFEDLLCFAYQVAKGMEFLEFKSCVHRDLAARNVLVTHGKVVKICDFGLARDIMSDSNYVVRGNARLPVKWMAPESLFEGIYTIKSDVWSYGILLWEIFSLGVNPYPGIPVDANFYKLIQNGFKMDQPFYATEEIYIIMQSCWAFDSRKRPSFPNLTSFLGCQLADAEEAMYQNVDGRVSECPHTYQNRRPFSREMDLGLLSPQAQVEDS
Description: as §1

Abl = molecular target: T5, Abl (Homo sapiens, UniProt P00519); test: Upstate KinaseProfiler radio-enzymatic filter binding assay, Abl; type: biochemical; conditions: 10 μM compound; read-out: percentage inhibition, Abl
T5 construct: purchased Upstate
T5 sequence (P00519 whole entry, species assumed): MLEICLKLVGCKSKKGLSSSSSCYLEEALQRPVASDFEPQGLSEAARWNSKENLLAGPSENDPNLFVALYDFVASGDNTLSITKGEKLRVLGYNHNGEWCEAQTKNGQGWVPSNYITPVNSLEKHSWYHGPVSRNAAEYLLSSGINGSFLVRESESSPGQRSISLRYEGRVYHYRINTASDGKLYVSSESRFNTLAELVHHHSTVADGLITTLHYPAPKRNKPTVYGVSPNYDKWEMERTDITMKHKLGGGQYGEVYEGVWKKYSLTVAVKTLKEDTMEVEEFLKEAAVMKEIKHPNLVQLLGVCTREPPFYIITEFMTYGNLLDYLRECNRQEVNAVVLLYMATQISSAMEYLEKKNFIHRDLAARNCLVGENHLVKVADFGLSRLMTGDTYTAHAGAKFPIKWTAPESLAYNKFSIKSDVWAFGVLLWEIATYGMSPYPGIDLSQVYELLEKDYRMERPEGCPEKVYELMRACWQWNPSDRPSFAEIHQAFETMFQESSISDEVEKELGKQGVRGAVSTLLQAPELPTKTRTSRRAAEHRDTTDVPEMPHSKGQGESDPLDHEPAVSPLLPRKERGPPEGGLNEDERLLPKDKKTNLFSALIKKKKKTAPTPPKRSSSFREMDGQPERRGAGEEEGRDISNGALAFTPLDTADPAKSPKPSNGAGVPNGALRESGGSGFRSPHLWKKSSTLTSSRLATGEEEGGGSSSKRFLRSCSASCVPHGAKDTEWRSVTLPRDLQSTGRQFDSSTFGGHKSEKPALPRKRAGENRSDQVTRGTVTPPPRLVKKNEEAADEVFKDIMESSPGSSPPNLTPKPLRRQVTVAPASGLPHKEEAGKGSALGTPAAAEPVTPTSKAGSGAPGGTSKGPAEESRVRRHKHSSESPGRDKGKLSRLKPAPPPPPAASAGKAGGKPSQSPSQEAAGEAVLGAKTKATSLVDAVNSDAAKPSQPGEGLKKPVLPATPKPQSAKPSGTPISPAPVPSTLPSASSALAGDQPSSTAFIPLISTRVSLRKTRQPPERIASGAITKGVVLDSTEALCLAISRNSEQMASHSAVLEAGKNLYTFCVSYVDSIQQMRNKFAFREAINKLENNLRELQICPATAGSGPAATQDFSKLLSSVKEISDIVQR
Description: (§2) Compounds of the invention are assessed for their ability to inhibit individual members of a panel of kinases (a partial, non-limiting list of kinases includes: cSRC, Lck, FGFR3, Flt3, TrkB and PFGFRα). The compounds are tested in duplicates at a final concentration of 10 μM following this generic protocol. Note that the kinase buffer composition and the substrates vary for the different kinases included in the “Upstate KinaseProfiler™” panel. Kinase buffer (2.5 μL, 10×-containing MnCl2 when required), active kinase (0.001-0.01 Units; 2.51 μL), specific or Poly(Glu4-Tyr) peptide (5-500 μM or 0.01 mg/ml) in kinase buffer and kinase buffer (50 μM; 5 μL) are mixed in an eppendorf on ice. A Mg/ATP mix (10 μL; 67.5 (or 33.75) mM MgCl2, 450 (or 225) μM ATP and 1 μCi/μl [γ-^32P]-ATP (3000 Ci/mmol)) is added and the reaction is incubated at about 30° C. for about 10 minutes. […] The assay squares are transferred to a scintillation vial, 5 ml scintillation cocktail are added and ^32P incorporation (cpm) to the peptide substrate is quantified with a Beckman scintillation counter. Percentage inhibition is calculated for each reaction.

Lck = molecular target: T6, Lck (Homo sapiens, UniProt P06239); test: Upstate KinaseProfiler radio-enzymatic filter binding assay, Lck; type: biochemical; conditions: 10 μM compound; read-out: percentage inhibition, Lck
T6 construct: purchased Upstate
T6 sequence (P06239 whole entry): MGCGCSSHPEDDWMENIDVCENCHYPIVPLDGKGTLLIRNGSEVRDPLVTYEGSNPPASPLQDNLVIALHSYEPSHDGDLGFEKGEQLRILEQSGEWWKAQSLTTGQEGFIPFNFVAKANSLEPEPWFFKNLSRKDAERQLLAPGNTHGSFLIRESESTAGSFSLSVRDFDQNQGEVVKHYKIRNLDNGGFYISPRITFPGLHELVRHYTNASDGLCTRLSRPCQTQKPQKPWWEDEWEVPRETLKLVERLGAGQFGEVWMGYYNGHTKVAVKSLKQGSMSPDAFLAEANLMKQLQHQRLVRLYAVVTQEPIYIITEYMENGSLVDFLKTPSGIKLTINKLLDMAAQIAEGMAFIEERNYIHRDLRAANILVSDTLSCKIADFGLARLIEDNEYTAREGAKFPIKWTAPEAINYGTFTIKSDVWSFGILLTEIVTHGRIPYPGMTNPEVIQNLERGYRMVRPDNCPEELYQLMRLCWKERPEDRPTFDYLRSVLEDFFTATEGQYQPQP
Description: as §1

Rsk1 = molecular target: T7, Rsk1 (Homo sapiens, UniProt Q15418); test: Upstate KinaseProfiler radio-enzymatic filter binding assay, Rsk1; type: biochemical; conditions: 10 μM compound; read-out: percentage inhibition, Rsk1
T7 construct: purchased Upstate
T7 sequence (Q15418 whole entry, species assumed): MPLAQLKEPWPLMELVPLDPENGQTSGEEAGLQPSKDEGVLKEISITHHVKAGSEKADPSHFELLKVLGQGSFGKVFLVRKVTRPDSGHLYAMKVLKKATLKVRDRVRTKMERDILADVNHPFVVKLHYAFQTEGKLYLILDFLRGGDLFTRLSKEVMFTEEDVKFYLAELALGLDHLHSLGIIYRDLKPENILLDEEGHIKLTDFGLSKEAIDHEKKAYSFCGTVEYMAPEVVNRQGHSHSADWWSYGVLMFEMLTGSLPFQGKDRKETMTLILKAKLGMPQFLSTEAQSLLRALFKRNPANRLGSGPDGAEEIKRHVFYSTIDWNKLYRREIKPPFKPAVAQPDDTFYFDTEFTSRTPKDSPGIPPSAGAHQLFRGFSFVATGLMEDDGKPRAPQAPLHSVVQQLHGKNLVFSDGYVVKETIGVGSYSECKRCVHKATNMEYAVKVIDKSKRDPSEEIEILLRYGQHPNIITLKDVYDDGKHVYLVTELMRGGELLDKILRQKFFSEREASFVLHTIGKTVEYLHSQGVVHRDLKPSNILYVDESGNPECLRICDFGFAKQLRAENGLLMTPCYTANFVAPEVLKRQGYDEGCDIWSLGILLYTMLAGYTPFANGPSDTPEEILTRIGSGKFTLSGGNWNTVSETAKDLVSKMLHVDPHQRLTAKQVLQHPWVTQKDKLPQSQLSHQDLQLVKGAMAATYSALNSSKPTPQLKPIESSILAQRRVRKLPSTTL
Description: as §2

FGFR3 = molecular target: T8, FGFR3 (Homo sapiens, UniProt P22607); test: Upstate KinaseProfiler radio-enzymatic filter binding assay, FGFR3; type: biochemical; conditions: 10 μM compound; read-out: percentage inhibition, FGFR3
T8 construct: purchased Upstate
T8 sequence (P22607 23-806): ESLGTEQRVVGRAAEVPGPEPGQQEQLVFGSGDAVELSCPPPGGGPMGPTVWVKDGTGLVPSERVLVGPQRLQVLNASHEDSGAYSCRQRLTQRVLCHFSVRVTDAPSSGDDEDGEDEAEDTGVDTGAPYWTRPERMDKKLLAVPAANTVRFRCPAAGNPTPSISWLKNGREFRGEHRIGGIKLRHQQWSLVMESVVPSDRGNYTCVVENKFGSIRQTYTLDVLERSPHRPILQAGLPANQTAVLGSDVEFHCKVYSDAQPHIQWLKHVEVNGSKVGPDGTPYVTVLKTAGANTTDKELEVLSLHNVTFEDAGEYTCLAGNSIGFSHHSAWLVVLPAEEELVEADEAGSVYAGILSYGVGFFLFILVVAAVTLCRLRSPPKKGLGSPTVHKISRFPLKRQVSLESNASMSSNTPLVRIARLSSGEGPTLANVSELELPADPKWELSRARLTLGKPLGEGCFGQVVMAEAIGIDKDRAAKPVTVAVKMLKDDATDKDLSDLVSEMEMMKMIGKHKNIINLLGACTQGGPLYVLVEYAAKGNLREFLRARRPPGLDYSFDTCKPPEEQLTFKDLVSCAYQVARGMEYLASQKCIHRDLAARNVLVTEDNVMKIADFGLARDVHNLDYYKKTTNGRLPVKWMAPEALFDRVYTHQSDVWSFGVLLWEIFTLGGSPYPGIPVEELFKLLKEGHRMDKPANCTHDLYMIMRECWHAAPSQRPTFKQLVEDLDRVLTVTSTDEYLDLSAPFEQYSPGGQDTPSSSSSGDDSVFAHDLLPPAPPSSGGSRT
Description: as §2

purified GST-Flt-3 = molecular target: T9, purified GST-Flt-3 (Homo sapiens, UniProt P36888); test: Flt-3 tyrosine protein kinase assay, 33P incorporation from γ-33P-ATP into poly-EY; type: biochemical; conditions: purified GST-Flt-3, 10 μM ATP; read-out: IC50 in the assay described in example 13
T9 sequence (P36888 27-993): T4 sequence (P36888 27-993)
Description: The activity is assayed in the presence or absence of different concentrations of inhibitors, by measuring the incorporation of ^33P from γ-^33P-ATP into appropriate substrates.
Tyrosine protein kinase assay with purified GST-Flt-3 is carried out in a final volume of 40 μL containing 500 ng of enzyme in kinase buffer (30 mM Tris-HCl (pH7.5), 3 mM MnCl2, 15 mM MgCl2, 1.5 mM DTT, 15 μM Na3VO4, 7.5 mg/ml PEG, 0.25 μM poly-EY(Glu, Tyr), 1% DMSO (at highest concentration of compound), 10 μM ATP and γ-^33P-ATP (0.1 μCi)). Two solutions are made: the first solution of 10 μl contains the Flt-3 enzyme and the inhibitor. The second solution contains the substrate (poly-EY), ATP, and γ-^33P-ATP in 30 μl of kinase buffer. Both solutions are mixed on 96-well PVDF filter plates (Millipore, Bedford, Mass., USA), previously wetted with 70% ethanol and rinsed with 1M Tris (7.4). The reaction is incubated at room temperature for 20 minutes, stopped with 0.1% phosphoric acid and then filtered through the plate using a vacuum manifold, allowing the substrate to bind to the membrane. The plates are then washed 5 times with 0.1% phosphoric acid, mounted in Packard TopCount 96-well adapter plate, and 50 μL of Microscint™ (Packard) is added to each well before counting. […]

Ba/F3-Flt3-ITD cells = test: Ba/F3-Flt3-ITD cell proliferation/cytotoxicity (Yo-Pro); type: cell-based; conditions: Ba/F3 cells dependent on mutant Flt3, 48 hours, read-out: IC50 in the assay described by example 14
Source text: Compounds that have differential activity (more than or equal to 10 fold difference in sensitivity between Flt3+ cell lines and Flt3− cell lines are selected for further study.
The cell lines used for the initial screening are sub-lines of Ba/F3 cells that are engineered to over-express mutant or wild-type (non-mutated) Flt3 following infection with a retrovirus expressing appropriate Flt3 cDNAs. The parent cell line, Ba/F3 is dependent on interleukin-3 for proliferation, and when deprived of IL-3, the cells rapidly cease proliferation and die. The retrovirus expresses Flt3 from the retrovirual LTR and the neo gene from an IRES site. Ba/F3 cells are selected in G418 and analyzed for expression of Flt3 by fluorescence activated cell sorting (FACS). Cell lines with two different Flt3 mutations are used. One mutant expresses a Flt-3 that has a 14 amino acid duplication in the juxtamembrane domain encoded by exon 11, the specific duplication being . . . VDFREYEYDLKWEF . . . […]
Yo-Pro-1 iodide (Molecular Probes) is added to the cells at a final concentration of 2.5 μM in NaCl/Na-citrate buffer. The cells are incubated with Yo-Pro for 10 minutes at room temperature and then read on a fluorimeter for determination of cytotoxicity. Next, the cells are lysed with NP40/EDTA/EGTA buffer, incubated at room temperature for 90 minutes and read for the determination of proliferation. […]

T1 sequence (Q16620 32-822): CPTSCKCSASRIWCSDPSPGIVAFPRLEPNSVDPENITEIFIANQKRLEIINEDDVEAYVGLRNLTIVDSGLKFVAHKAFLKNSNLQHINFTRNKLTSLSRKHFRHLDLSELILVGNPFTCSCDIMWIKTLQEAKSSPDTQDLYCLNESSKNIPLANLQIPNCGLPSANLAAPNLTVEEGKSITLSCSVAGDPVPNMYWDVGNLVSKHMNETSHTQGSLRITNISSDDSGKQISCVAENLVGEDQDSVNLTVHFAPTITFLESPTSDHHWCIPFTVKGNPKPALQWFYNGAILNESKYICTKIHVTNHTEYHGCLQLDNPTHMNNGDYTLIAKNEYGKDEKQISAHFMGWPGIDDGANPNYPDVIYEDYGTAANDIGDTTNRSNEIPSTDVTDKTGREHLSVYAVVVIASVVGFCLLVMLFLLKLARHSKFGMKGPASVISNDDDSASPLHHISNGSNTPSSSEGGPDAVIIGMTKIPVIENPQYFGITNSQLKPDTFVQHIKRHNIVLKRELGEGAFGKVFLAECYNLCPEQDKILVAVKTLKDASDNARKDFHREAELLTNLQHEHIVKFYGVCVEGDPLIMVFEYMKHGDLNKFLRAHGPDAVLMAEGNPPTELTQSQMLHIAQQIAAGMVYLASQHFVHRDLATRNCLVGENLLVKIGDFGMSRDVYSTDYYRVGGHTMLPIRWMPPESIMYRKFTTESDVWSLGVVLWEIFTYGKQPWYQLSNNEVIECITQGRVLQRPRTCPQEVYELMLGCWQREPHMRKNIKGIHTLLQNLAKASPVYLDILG

Row | SMILES | inhibition at 10 µM (TrkB) [%] | inhibition at 10 µM (Bmx) [%] | inhibition at 10 µM (c-Src) [%] | inhibition at 10 µM (Flt3) [%] | inhibition at 10 µM (Abl) [%] | inhibition at 10 µM (Lck) [%] | inhibition at 10 µM (Rsk1) [%] | inhibition at 10 µM (FGFR3) [%] | IC50 (purified GST-Flt-3) [nM] | IC50 (Ba/F3-Flt3-ITD cells) [nM]
1 | CS(=O)(=O)c1ccc(Nc2nc(N3CCOCC3)nc3c2ncn3-c2cscn2)cc1 [Compound 503, (4-Methanesulfonyl-phenyl)-(2-morpholin-4-yl-9-thiazol-4-yl-9H-purin-6-yl)-amine] | 99 | 71 | 98 | 99 | 81 | 99 | – | – | – | –
2 | CN1CCC(N(C)c2nc(Nc3ccc(N4CCOCC4)cc3)c3ncn(-c4cscn4)c3n2)CC1 [Compound 539, N^2-Methyl-N^2-(1-methyl-piperidin-4-yl)-N^6-(4-morpholin-4-yl-phenyl)-9-thiazol-4-yl-9H-purine-2,6-diamine] | 99 | 90 | 97 | 100 | – | 99 | 82 | – | – | –
3 | CS(=O)(=O)c1ccc(Nc2nc(NCc3ccccn3)nc3c2ncn3-c2cscn2)cc1 [Compound 554, N^6-(4-Methanesulfonyl-phenyl)-N^2-pyridin-2-ylmethyl-9-thiazol-4-yl-9H-purine-2,6-diamine] | 99 | 86 | 99 | 100 | 98 | 95 | – | 98 | – | –
4 | NC1CCC(Nc2nc(Nc3ccc(C(=O)N4CCCCC4)cc3)c3ncn(-c4ccsc4)c3n2)CC1 (stereo not drawn) [{4-[2-(4-amino-cyclohexylamino)-9-thiophen-3-yl-9H-purin-6-ylamino]-phenyl}-piperidin-1-yl-methanone] | – | – | – | – | – | – | – | – | 7 | 5
